Measured values taken from patent US11034718B2, “C-3 novel triterpenone with C-17 reverse amide derivatives as HIV inhibitors” (HETERO LABS LIMITED, priority 2015, dated 2021).
Read-outs that look alike come from different tables or passages of the source.

Columns and labels:
Assay type in all cases: cell-based
[1] = test system: HIV-1 pNL4-3 V7A; assay: Antiviral activity against pNL4-3/V7A strain in MT4 cells (p24 estimation); settings: Human immunodeficiency virus 1, MT4, 96 h, read-out: pNL4-3 V7A IC50
Description: (§1) Example 78: Evaluation of Compounds Antiviral Activity Against pNL4-3/WT & V7A Strains in MT4 Cells
(§2) MT4 cells were Transfected with HIV-1 Plasmid (pNL4-3-WT & V7A) (Cells were incubating with required number of TCID50 of HIV-1 for 1.5 h at 37° C.). After infection, the infected cells were plated at the concentration of 3×10^4 cells per well in 96 well plate. Test compound was added to the test plate in defined format with the final concentration of DMSO is not more than 1%. Incubation was carried out in CO2 incubator for 4 days for viral infection. At the end of incubation period an aliquot from each well was taken for p24 estimation. p24 estimation was carried out using Advance biosciences kit as per the procedure detailed by supplier.

[2] = test system: HIV-1 pNL4-3 WT; assay: Antiviral activity against pNL4-3/WT strain in MT4 cells (p24 estimation); settings: Human immunodeficiency virus 1, MT4, 96 h, read-out: pNL4-3 WT IC50
Description: as §1, §2

[3] = test system: HIV-1 strain 92HT599; assay: Antiviral activity against HIV-1 strain 92HT599 in MT2 cells (p24 estimation); settings: HIV-1 92HT599, ~96 hours
Procedure, shortened: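 Percent inhibition versus vehicle controls came from p24 quantified in supernatant aliquots. These were taken after ~96 h incubation of compound (DMSO ≤1%) with MT2 cells infected at 10 TCID50/30,000 cells.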

[4] = Human immunodeficiency virus 1, 0% serum binding assay, read-out: IC50 0% serum
[5] = Human immunodeficiency virus 1, 40% serum binding assay, read-out: IC50 40% serum

| Compound | IC50 [1] | IC50 [2] | IC50 [3, 4] | IC50 [3, 5] |
| --- | --- | --- | --- | --- |
| Cc1cn(-c2ccc(C(=O)NC(C)(C)C(=O)N[C@@]34CC[C@]5(C)[C@H](CC[C@@H]6[C@@]7(C)CC[C@H](OC(=O)[C@H]8C[C@@H](C(=O)O)C8(C)C)C(C)(C)[C@@H]7CC[C@]65C)C3=C(C(C)C)C(=O)C4)cc2)cn1 [Example 20, (1R,3S)-3-((((3aR,5aR,5bR,7aR,9S,11aR,11bR,13aS)-1-isopropyl-5a,5b,8,8,11a-pentamethyl-3a-(2-methyl-2-(4-(4-methyl-1H-imidazol-1-yl)benzamido)propanamido)-2-oxo-3,3a,4,5,5a,5b,6,7,7a,8,9,10,11,11a,11b,12,13,13a-octadeca hydro-2H-cyclopenta[a]chrysen-9-yl)oxy)carbonyl)-2,2-dimethylcyclobutane-1-carboxylic acid] | > 50 nM | > 10 nM | < 3 nM | < 50 nM |
| CC(C)C1=C2[C@H]3CC[C@@H]4[C@@]5(C)CC[C@H](OC(=O)[C@H]6C[C@@H](C(=O)O)C6(C)C)C(C)(C)[C@@H]5CC[C@@]4(C)[C@]3(C)CC[C@@]2(NC(=O)C(C)(C)NC(=O)c2ccc(C(F)(F)F)cc2)CC1=O [Example 25, (1R,3S)-3-((((3aR,5aR,5bR,7aR,9S,11aR,11bR,13aS)-1-isopropyl-5a,5b,8,8,11a-pentamethyl-3a-(2-methyl-2-(4-(trifluoromethyl)benzamido)propan amido)-2-oxo-3,3a,4,5,5a,5b,6,7,7a,8,9,10,11,11a,11b,12,13,13a-octadecahydro-2H-cyclopenta[a]chrysen-9-yl)oxy)carbonyl)-2,2-dimethylcyclobutane-1-carboxylic acid] | < 10 nM | < 5 nM | < 3 nM | < 50 nM |
| CC(C)C1=C2[C@H]3CC[C@@H]4[C@@]5(C)CC[C@H](OC(=O)[C@H]6C[C@@H](C(=O)O)C6(C)C)C(C)(C)[C@@H]5CC[C@@]4(C)[C@]3(C)CC[C@@]2(NC(=O)C(C)(C)NC(=O)c2ccc3ccccc3n2)CC1=O [Example 28, (1R,3S)-3-((((3aR,5aR,5bR,7aR,9S,11aR,11bR,13aS)-1-isopropyl-5a,5b,8,8,11a-pentamethyl-3a-(2-methyl-2-(quinoline-2-carboxamido)propanamido)-2-oxo-3,3a,4,5,5a,5b,6,7,7a,8,9,10,11,11a,11b,12,13,13a-octadecahydro-2H-cyclopenta[a]chrysen-9-yl)oxy)carbonyl)-2,2-dimethylcyclobutane-1-carboxylic acid] | 10 to 50 nM | 5.01 to 10 nM | < 3 nM | < 50 nM |
| Cc1occc1C(=O)NC(C)(C)C(=O)N[C@@]12CC[C@]3(C)[C@H](CC[C@@H]4[C@@]5(C)CC[C@H](OC(=O)[C@H]6C[C@@H](C(=O)O)C6(C)C)C(C)(C)[C@@H]5CC[C@]43C)C1=C(C(C)C)C(=O)C2 [Example 30, (1R,3S)-3-((((3aR,5aR,5bR,7aR,9S,11aR,11bR,13aS)-1-isopropyl-5a,5b,8,8,11a-pentamethyl-3a-(2-methyl-2-(2-methylfuran-3-carboxamido)propan amido)-2-oxo-3,3a,4,5,5a,5b,6,7,7a,8,9,10,11,11a,11b,12,13,13a-octadecahydro-2H-cyclopenta[a]chrysen-9-yl)oxy)carbonyl)-2,2-dimethylcyclobutane-1-carboxylic acid] | > 50 nM | 5.01 to 10 nM | < 3 nM | < 50 nM |
| CC(C)C1=C2[C@H]3CC[C@@H]4[C@@]5(C)CC[C@H](OC(=O)[C@H]6C[C@@H](C(=O)O)C6(C)C)C(C)(C)[C@@H]5CC[C@@]4(C)[C@]3(C)CC[C@@]2(NC(=O)C(C)(C)NC(=O)c2cccnc2N2CCOCC2)CC1=O [Example 31, (1R,3S)-3-((((3aR,5aR,5bR,7aR,9S,11aR,11bR,13aS)-1-isopropyl-5a,5b,8,8,11a-pentamethyl-3a-(2-methyl-2-(2-morpholinonicotinamido)propan amido)-2-oxo-3,3a,4,5,5a,5b,6,7,7a,8,9,10,11,11a,11b,12,13,13a-octadecahydro-2H-cyclopenta[a]chrysen-9-yl)oxy)carbonyl)-2,2-dimethylcyclobutane-1-carboxylic acid] | > 50 nM | < 5 nM | < 3 nM | < 50 nM |
| CC(C)C1=C2[C@H]3CC[C@@H]4[C@@]5(C)CC[C@H](OC(=O)[C@H]6C[C@@H](C(=O)O)C6(C)C)C(C)(C)[C@@H]5CC[C@@]4(C)[C@]3(C)CC[C@@]2(NC(=O)C(C)(C)NC(=O)c2ncccn2)CC1=O [Example 32, (1R,3S)-3-((((3aR,5aR,5bR,7aR,9S,11aR,11bR,13aS)-1-isopropyl-5a,5b,8,8,11a-pentamethyl-3a-(2-methyl-2-(pyrimidine-2-carboxamido)propanamido)-2-oxo-3,3a,4,5,5a,5b,6,7,7a,8,9,10,11,11a,11b,12,13,13a-octadecahydro-2H-cyclopenta[a]chrysen-9-yl)oxy)carbonyl)-2,2-dimethylcyclobutane-1-carboxylic acid] | > 50 nM | > 10 nM | 3.01 to 10 nM | > 200 nM |
| Cc1cc(C(=O)NC(C)(C)C(=O)N[C@@]23CC[C@]4(C)[C@H](CC[C@@H]5[C@@]6(C)CC[C@H](OC(=O)[C@H]7C[C@@H](C(=O)O)C7(C)C)C(C)(C)[C@@H]6CC[C@]54C)C2=C(C(C)C)C(=O)C3)c(C)o1 [Example 33, (1R,3S)-3-((((3aR,5aR,5bR,7aR,9S,11aR,11bR,13aS)-3a-(2-(2,5-dimethylfuran-3-carboxamido)-2-methylpropanamido)-1-isopropyl-5a,5b,8,8,11a-pentamethyl-2-oxo-3,3a,4,5,5a,5b,6,7,7a,8,9,10,11,11a,11b,12,13,13a-octadecahydro-2H-cyclopenta[a]chrysen-9-yl)oxy)carbonyl)-2,2-dimethylcyclobutane-1-carboxylic acid] | < 10 nM | < 5 nM | < 3 nM | < 50 nM |
| CC(C)C1=C2[C@H]3CC[C@@H]4[C@@]5(C)CC[C@H](OC(=O)[C@H]6C[C@@H](C(=O)O)C6(C)C)C(C)(C)[C@@H]5CC[C@@]4(C)[C@]3(C)CC[C@@]2(NC(=O)C(C)(C)NC(=O)CN2CCS(=O)(=O)CC2)CC1=O [Example 34, (1R,3S)-3-((((3aR,5aR,5bR,7aR,9S,11aR,11bR,13aS)-3a-(2-(2-(1,1-dioxidothiomorpholino)acetamido)-2-methylpropanamido)-1-isopropyl-5a,5b,8,8,11a-pentamethyl-2-oxo-3,3a,4,5,5a,5b,6,7,7a,8,9,10,11,11a,11b,12,13,13a-octadecahydro-2H-cyclopenta[a]chrysen-9-yl)oxy)carbonyl)-2,2-dimethylcyclobutane-1-carboxylic acid] | 10 to 50 nM | < 5 nM | < 3 nM | < 50 nM |
| CC(C)C1=C2[C@H]3CC[C@@H]4[C@@]5(C)CC[C@H](OC(=O)[C@H]6C[C@@H](C(=O)O)C6(C)C)C(C)(C)[C@@H]5CC[C@@]4(C)[C@]3(C)CC[C@@]2(NC(=O)C2(NC(=O)c3ccc(Cl)cc3)CC2)CC1=O [Example 37, (1R,3S)-3-((((3aR,5aR,5bR,7aR,9S,11aR,11bR,13aS)-3a-(1-(4-chlorobenzamido)cyclopropane-1-carboxamido)-1-isopropyl-5a,5b,8,8,11a-pentamethyl-2-oxo-3,3a,4,5,5a,5b,6,7,7a,8,9,10,11,11a,11b,12,13,13a-octadecahydro-2H-cyclopenta[a]chrysen-9-yl)oxy)carbonyl)-2,2-dimethylcyclobutane-1-carboxylic acid] | < 10 nM | < 5 nM | < 3 nM | < 50 nM |
| Cc1ccc(C(=O)NC2(C(=O)N[C@@]34CC[C@]5(C)[C@H](CC[C@@H]6[C@@]7(C)CC[C@H](OC(=O)[C@H]8C[C@@H](C(=O)O)C8(C)C)C(C)(C)[C@@H]7CC[C@]65C)C3=C(C(C)C)C(=O)C4)CC2)cn1 [Example 38, (1R,3S)-3-((((3aR,5aR,5bR,7aR,9S,11aR,11bR,13aS)-1-isopropyl-5a,5b,8,8,11a-pentamethyl-3a-(1-(6-methylnicotinamido)cyclopropane-1-carbox amido)-2-oxo-3,3a,4,5,5a,5b,6,7,7a,8,9,10,11,11a,11b,12,13,13a-octadecahydro-2H-cyclopenta[a]chrysen-9-yl)oxy)carbonyl)-2,2-dimethylcyclobutane-1-carboxylic acid] | < 10 nM | < 5 nM | < 3 nM | < 50 nM |
| CC(C)C1=C2[C@H]3CC[C@@H]4[C@@]5(C)CC[C@H](OC(=O)[C@H]6C[C@@H](C(=O)O)C6(C)C)C(C)(C)[C@@H]5CC[C@@]4(C)[C@]3(C)CC[C@@]2(NC(=O)C2(NC(=O)c3ccc(F)cc3)CC2)CC1=O [Example 39, (1R,3S)-3-((((3aR,5aR,5bR,7aR,9S,11aR,11bR,13aS)-3a-(1-(4-fluorobenzamido)cyclopropane-1-carboxamido)-1-isopropyl-5a,5b,8,8,11a-pentamethyl-2-oxo-3,3a,4,5,5a,5b,6,7,7a,8,9,10,11,11a,11b,12,13,13a-octadecahydro-2H-cyclopenta[a]chrysen-9-yl)oxy)carbonyl)-2,2-dimethylcyclobutane-1-carboxylic acid] | 10 to 50 nM | 5.01 to 10 nM | < 3 nM | < 50 nM |
